Laboratory results from publication PMC10706087, “The Subtype Selectivity in Search of Potent Hypotensive Agents among 5,5-Dimethylhydantoin Derived α1-Adrenoceptors Antagonists” (International Journal of Molecular Sciences, 2023).
Values joined by “and” are separate entries in the source; they are usually repeats but may differ in a detail not shown here. Equal entries are not always repeated.

Columns and labels:
[1] = target: α1-adrenoceptors (α1-ARs), rat cerebral cortex; experiment: Radioligand binding assay with [3H]-prazosin, affinity for α1-ARs; conditions: three independent experiments in duplicates, read-out: α1-adrenoceptor affinity Ki
Description: In the first step, all synthesized compounds (1–15) were tested in vitro for their affinity for α1-ARs on rat cerebral cortex by the radioligand binding assay using [^3H]-prazosin as a specific radioligand.
The affinity for α1-ARs was determined by radioligand binding assay on rat cerebral cortex using [3H]-prazosin as a specific radioligand. The brains were homogenized in 20 volumes of an ice-cold 50 mM Tris-HCl buffer (pH 7.6) and were centrifuged (MPW Med. Instruments, Warsaw, Poland) at 20,000× g for 20 min (0–4 °C). The cell pellet was resuspended in the Tris-HCl buffer and centrifuged again. Radioligand-binding assay was performed in plates (MultiScreen/Millipore, Burlington, MA, USA). The final incubation mixture (final volume 300 μL) consisted of 240 μL of the membrane suspension, 30 μL of [3H]-Prazosin (0.2 nM) solution, and 30 μL of the buffer containing seven to eight concentrations (10^−11 to 10^−4 M) of the tested compounds. For measuring the unspecific binding, phentolamine, 10 μM (in the case of [3H]-Prazosin) was applied. The incubation was terminated by rapid filtration over glass fiber filters (Whatman GF/C, Sigma-Aldrich) using a vacuum manifold (Millipore). The filters were then washed twice with the assay buffer and placed in scintillation vials with a liquid-scintillation cocktail. Radioactivity was measured in a WALLAC 1409 DSA liquid-scintillation counter (BioSurplus, San Diego, CA, USA).
(§1) All statistics were performed using GraphPad Prism, Version 6.0 (GraphPad Software, San Diego, CA, USA). In the radioligand binding study, data were analyzed by a one-site curve-fitting equation, and inhibition constants (Ki) values were calculated via the Cheng-Prusoff equation [63]. In functional studies, data were analyzed using a sigmoidal dose-response (variable slope) equation. Arterial blood pressure data were analyzed using a two-way ANOVA with Sidak’s post-hoc test for multiple comparisons. A p < 0.05 was considered statistically significant.

[2] = system: arterial blood pressure of normotensive Wistar rats; experiment: Influence on blood pressure in normotensive anesthetized rats after i.v. administration; type: in vivo, rat; conditions: for Diastolic blood pressure / Systolic blood pressure: 2.0 mg/kg i.v., mean, n = 6; for effect on systolic and diastolic blood pressure (in words): i.v., normotensive anesthetized rats
Description: In the next step, the hypotensive activity of novel compounds 1–3, 5–9, and 11–14 was determined after i.v. administration to normotensive anesthetized rats. All results are shown in Supplementary Table S1.
The normotensive rats were anesthetized with thiopental (75 mg/kg) by intraperitoneal injection (i.p.). The left carotid artery was cannulated with a polyethylene tub filled with heparin in saline to facilitate pressure measurements using a PowerLab Apparatus (ADInstruments, Sydney, Australia). Blood pressure was measured immediately before administration of the tested compounds or vehicle—time 0 min (initial blood pressure) and 60 min thereafter. Initial blood pressure before administration of the tested chemicals in all experimental groups was similar. The tested compounds were dissolved in a specific vehicle: ethyl alcohol 5% − kolliphor 5% − water 90%. All tested chemicals were administrated intravenously (i.v.) at a constant volume of 1 mL/kg after 20 min of stabilization period. The compounds were tested at a starting dose of 2 mg/kg. If the hypotensive activity was found, the dose was reduced by half. The dosing was continued until the hypotensive effects disappeared. Urapidil was used as a reference compound.
as §1

[3] = target: T1, human adrenergic receptor α1B (Homo sapiens, UniProt P35368); experiment: Intrinsic activity, aequorin luminescence functional assay at α1B-AR; type: cell-based; conditions: for α1B-AR Profile: agonist/antagonist profile; for IC50: cells expressing aequorin and human α1B, against phenylephrine, means of three independent experiments in duplicates; for Selectivity Ratio α1A/α1B: selectivity for α1B-AR (IC50(α1A-AR)/IC50(α1B-AR))
T1 sequence (P35368 1-520): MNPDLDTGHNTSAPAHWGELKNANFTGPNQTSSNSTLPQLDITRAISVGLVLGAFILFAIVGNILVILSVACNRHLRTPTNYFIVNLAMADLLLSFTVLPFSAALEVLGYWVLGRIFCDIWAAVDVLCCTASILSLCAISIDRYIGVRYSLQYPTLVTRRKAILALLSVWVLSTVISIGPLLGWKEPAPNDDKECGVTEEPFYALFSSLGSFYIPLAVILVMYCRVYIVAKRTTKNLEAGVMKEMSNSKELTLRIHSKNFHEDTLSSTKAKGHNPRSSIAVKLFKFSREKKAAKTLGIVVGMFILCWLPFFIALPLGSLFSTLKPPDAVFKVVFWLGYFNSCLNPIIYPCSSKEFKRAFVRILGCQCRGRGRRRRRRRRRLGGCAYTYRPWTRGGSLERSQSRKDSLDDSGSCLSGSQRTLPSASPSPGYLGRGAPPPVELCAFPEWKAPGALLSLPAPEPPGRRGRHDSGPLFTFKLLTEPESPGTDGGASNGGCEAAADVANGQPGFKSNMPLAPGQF
Description: (§2) The subtype selectivity for α1A and α1B was calculated as IC50(α1B-AR)/IC50(α1A-AR) and IC50(α1A-AR)/IC50(α1B-AR) ratio, respectively.
(§3) Intrinsic activity at the α1-AR subtypes studies were performed using the cells expressing mitochondrially-targeted aequorin and one of the human adrenergic receptor α1A or α1B (PerkinElmer, Boston, MA, USA), according to the manufacturer’s instructions. For measurement, frozen cells were thawed and re-suspended in 10 mL of assay buffer containing 5 μM “Coelenterazine h”. This cell suspension was put in a 10 mL Falcon tube, fixed onto a rotating heel, and incubated overnight at rt in the dark (8 rpm; 45° angle). Cells were diluted with Assay Buffer to 5000 cells/20 μL. […] The light emitted was recorded for 20 s. Cells with antagonists were incubated for 15 min at room temperature. […] Luminescence was measured using the multidetection microplate reader (POLARstar Omega, BMG LABTECH, Ortenberg, Germany).
as §1

[4] = target: T2, human adrenergic receptor α1A (Homo sapiens, UniProt P35348); experiment: Intrinsic activity, aequorin luminescence functional assay at α1A-AR; type: cell-based; conditions: for α1A-AR Profile: agonist/antagonist profile; for IC50: cells expressing aequorin and human α1A, against phenylephrine, means of three independent experiments in duplicates; for Selectivity Ratio α1B/α1A: selectivity for α1A-AR (IC50(α1B-AR)/IC50(α1A-AR))
T2 sequence (P35348 1-466): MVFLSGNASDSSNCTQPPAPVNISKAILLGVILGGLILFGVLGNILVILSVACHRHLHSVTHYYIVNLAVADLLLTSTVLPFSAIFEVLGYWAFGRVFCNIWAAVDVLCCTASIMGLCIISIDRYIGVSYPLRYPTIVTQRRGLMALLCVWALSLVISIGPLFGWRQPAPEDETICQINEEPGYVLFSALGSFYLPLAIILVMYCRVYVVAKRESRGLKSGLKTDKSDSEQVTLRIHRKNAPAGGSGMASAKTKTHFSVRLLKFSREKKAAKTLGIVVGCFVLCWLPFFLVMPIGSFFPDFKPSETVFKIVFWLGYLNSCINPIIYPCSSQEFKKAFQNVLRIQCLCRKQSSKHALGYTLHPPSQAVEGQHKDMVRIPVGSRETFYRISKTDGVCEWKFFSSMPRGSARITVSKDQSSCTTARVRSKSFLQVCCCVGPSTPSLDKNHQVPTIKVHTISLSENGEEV
Description: as §2, §3, §1

[5] = 0 min (initial, before administration)

SMILES | Ki [1] [nM] | Diastolic blood pressure [2, 5] | Systolic blood pressure [2, 5] | Diastolic blood pressure ([2]; 5 min) | Systolic blood pressure ([2]; 5 min) | Diastolic blood pressure ([2]; 10 min) | Systolic blood pressure ([2]; 10 min) | Diastolic blood pressure ([2]; 20 min) | Systolic blood pressure ([2]; 20 min) | Diastolic blood pressure ([2]; 30 min) | Systolic blood pressure ([2]; 30 min) | Diastolic blood pressure ([2]; 40 min) | Systolic blood pressure ([2]; 40 min) | Diastolic blood pressure ([2]; 50 min) | Systolic blood pressure ([2]; 50 min) | Diastolic blood pressure ([2]; 60 min) | α1B-AR Profile [3] | IC50 [3] | Selectivity Ratio α1A/α1B [3] | melting point [°C] | further results
CC1(C)C(=O)N(Cc2ccc(Cl)cc2Cl)C(=O)N1CCCCCN1CCN(c2ccccc2)CC1.Cl [Compound 3, 3-(2,4-dichlorobenzyl)-5,5-dimethyl-1-(5-(4-phenylpiperazin-1-yl)pentyl)imidazolidine-2,4-dione hydrochloride] | 43 | 93.7 | 132.2 | 90.3 | 123.3 | 81.2 | 113.7 | 81.7 | 113.0 | 83.2 | 116.3 | 82.7 | 116.3 | 84.2 | 120.3 | 83.8 | Antagonist | < 11 nM and 3.27 nM | 88.73 | 218 to 220 | Systolic blood pressure ([2]; 60 min): 119.7; effect on systolic and diastolic blood pressure (in words) [2]: statistically significant reduction; selectivity for α1B-AR over α1A-AR ([3]; from IC50 ratio): ~ 90 fold; α1A-AR Profile [4]: Antagonist; IC50 [4]: 290 nM; Selectivity Ratio α1B/α1A [4]: 0.01
Cc1ccc(N2CCN(CC(O)CN3C(=O)N(Cc4ccc(Cl)cc4Cl)C(=O)C3(C)C)CC2)cc1C.Cl (centres unmarked) [Compound 12, 3-(2,4-dichlorobenzyl)-1-(3-(4-(3,4-dimethylphenyl)piperazin-1-yl)-2-hydroxypropyl)-5,5-dimethylimidazolidine-2,4-dione hydrochloride] | 270 | 104.2 | 139.0 | 98.2 | 134.7 | 99.5 | 134.5 | 97.8 | 132.0 | 96.7 | 131.0 | 97.0 | 129.0 | 96.8 | 130.0 | 97.3 | Antagonist | 377 nM | 8.31 | 217 to 219 | α1A-AR Profile [4]: Antagonist; IC50 [4]: 3140 nM; Selectivity Ratio α1B/α1A [4]: 0.12
COc1ccccc1N1CCN(CCCN2C(=O)N(Cc3ccc(Cl)cc3Cl)C(=O)C2(C)C)CC1.Cl [Compound 1, 3-(2,4-dichlorobenzyl)-1-(3-(4-(2-methoxyphenyl)piperazin-1-yl)propyl)-5,5-dimethylimidazolidine-2,4-dione hydrochloride] | 31 | 101.0 | 133.3 | 88.3 | 120.3 | 82.3 | 113.0 | 82.2 | 112.2 | 81.3 | 114.2 | 80.8 | 114.7 | 81.7 | 116.0 | 83.3 | Antagonist | < 100 nM and < 11 nM and 10.7 nM | 8.46 | 201 to 203 | Systolic blood pressure ([2]; 60 min): 117.5; effect on systolic and diastolic blood pressure (in words) [2]: statistically significant reduction; α1A-AR Profile [4]: Antagonist; IC50 [4]: < 100 nM and 90.6 nM; Selectivity Ratio α1B/α1A [4]: 0.12
